Experimental findings from patent publication US20260028354A1, “TETRAHYDRONAPHTHALENE DERIVATIVES AS ESTROGEN RECEPTOR DEGRADERS” (REGENT OF THE UNIVERSITY OF MICHIGAN, priority 2022, published 2026) are described below.

For the assay, the target named is ER (Homo sapiens (Human), UniProt P03372). In words: In-cell western blot analysis of ER for "B" compounds. The note with it: 16 hours, read-out: ICW DC50. The format is cell-based. On the procedure:
R^T 2h, gentle shaking. Negative control: cells plus secondary antibodies (no primary antibodies); e, wash x 4 with PBS+0.05-0.1% Tween 20, gentel shaking; f, anti-rabbit-680 and anti-mouse-800 (both 1:1000 in LiCor block+0.05% Tween20, R^T 1h, gentle shaking, no light. LI-COR: 0.2% to reduce background; g, wash×4 with PBS+0.05% Tween 20, gental shaking; h, add 100 μL or 25 μL of PBS to each well and read on CLX plate reader. The relative ER percentage in treated cells were obtained by comparing the values of treated wells to those in untreated and DMSO-treated wells as 100%.

Each structure is given as a SMILES string. Bounds are passed on as bounds.

Sequence of ER (P03372 whole entry): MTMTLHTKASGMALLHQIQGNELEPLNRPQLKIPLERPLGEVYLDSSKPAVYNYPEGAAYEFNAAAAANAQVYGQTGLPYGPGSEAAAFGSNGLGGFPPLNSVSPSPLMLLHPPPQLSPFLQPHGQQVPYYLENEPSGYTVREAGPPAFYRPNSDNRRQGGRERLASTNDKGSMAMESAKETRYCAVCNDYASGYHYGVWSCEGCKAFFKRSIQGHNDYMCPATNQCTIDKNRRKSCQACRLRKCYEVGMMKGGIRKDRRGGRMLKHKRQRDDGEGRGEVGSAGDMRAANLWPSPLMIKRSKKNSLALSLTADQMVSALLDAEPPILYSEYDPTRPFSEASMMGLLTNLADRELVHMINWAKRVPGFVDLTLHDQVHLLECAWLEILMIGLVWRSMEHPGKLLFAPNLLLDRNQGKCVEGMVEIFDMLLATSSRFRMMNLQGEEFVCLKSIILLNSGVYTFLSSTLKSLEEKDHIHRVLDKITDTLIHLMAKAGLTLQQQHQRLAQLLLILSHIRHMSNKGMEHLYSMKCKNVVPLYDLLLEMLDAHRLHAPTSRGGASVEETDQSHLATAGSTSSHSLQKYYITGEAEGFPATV

Turning to `O=C1CCC(N2Cc3cc4c(cc3C2=O)OC[C@@H]2CN(CC3CC5CN(c6ccc([C@@H]7c8ccc(O)cc8CC[C@@H]7c7ccccc7)cc6)CC5C3)CCN42)C(=O)N1` (mixture of isomers) [Compound B321, 3-((4aS)-3-(((3aRS,6aSR)-2-(4-((1R,2S)-6-hydroxy-2-phenyl-1,2,3,4-tetrahydronaphthalen-1-yl)phenyl)octahydrocyclopenta[c]pyrrol-5-yl)methyl)-8-oxo-1,2,3,4,4a,5,8,10-octahydro-9H-pyrazino[1′,2′:4,5][1,4]oxazino[2,3-f]isoindol-9-yl)piperidine-2,6-dione], the DC50 is greater than 100 nM.

For the compound `O=C1CCC(N2Cc3cc4c(cc3C2=O)OC[C@@H]2CN(CC(=O)N3C[C@@H]5CN(c6ccc([C@@H]7c8ccc(O)cc8CC[C@@H]7c7ccccc7)cc6)C[C@@H]5C3)CCN42)C(=O)N1` (stereo partly drawn) [Compound B156, 3-((S)-3-(2-((3aR,6aS)-5-(4-((1R,2S)-6-hydroxy-2-phenyl-1,2,3,4-tetrahydronaphthalen-1-yl)phenyl)hexahydropyrrolo[3,4-c]pyrrol-2(1H)-yl)-2-oxoethyl)-8-oxo-1,2,3,4,4a,5,8,10-octahydro-9H-pyrazino[1′,2′:4,5][1,4]oxazino[2,3-f]isoindol-9-yl)piperidine-2,6-dione], the DC50 was greater than 100 nM.

Regarding `O=C1CCC(N2Cc3cc4c(cc3C2=O)OC[C@@H]2CN(CC(=O)N3CCC5(CC3)CN(c3ccc([C@@H]6c7ccc(O)cc7CC[C@@H]6c6ccccc6)cc3)C5)CCN42)C(=O)N1` (stereo partly drawn) [Compound B160, 3-((S)-3-(2-(2-(4-((1R,2S)-6-hydroxy-2-phenyl-1,2,3,4-tetrahydronaphthalen-1-yl)phenyl)-2,7-diazaspiro[3.5]nonan-7-yl)-2-oxoethyl)-8-oxo-1,2,3,4,4a,5,8,10-octahydro-9H-pyrazino[1′,2′:4,5][1,4]oxazino[2,3-f]isoindol-9-yl)piperidine-2,6-dione], the DC50 was less than 10 nM.

`O=C1CCC(Nc2ccc(C3CCN(CC4CC5(CCN(c6ccc([C@@H]7c8ccc(O)cc8CC[C@@H]7c7ccccc7)cc6)CC5)C4)CC3)cc2F)C(=O)N1` (stereo partly drawn) [Compound B379, 3-((2-fluoro-4-(1-((7-(4-((1R,2S)-6-hydroxy-2-phenyl-1,2,3,4-tetrahydronaphthalen-1-yl)phenyl)-7-azaspiro[3.5]nonan-2-yl)methyl)piperidin-4-yl)phenyl)amino)piperidine-2,6-dione]: the DC50 is greater than 100 nM.

On to `O=C1CCC(N2Cc3c(ccc4c3OC[C@H]3CN(C[C@H]5CC[C@H](Nc6ccc([C@@H]7c8ccc(O)cc8CC[C@@H]7c7ccccc7)cc6)CC5)CCN43)C2=O)C(=O)N1` (stereo partly drawn) [Compound B322, 3-((R)-7-(((1R,4R)-4-((4-((1R,2S)-6-hydroxy-2-phenyl-1,2,3,4-tetrahydronaphthalen-1-yl)phenyl)amino)cyclohexyl)methyl)-1-oxo-1,3,5,5a,6,7,8,9-octahydro-2H-pyrazino[1′,2′:4,5][1,4]oxazino[2,3-e]isoindol-2-yl)piperidine-2,6-dione], for which the DC50 is less than 10 nM.

Consider `O=C1CCC(Nc2ccc(N3CCN(CC4CC5(CCN(c6ccc([C@@H]7c8ccc(O)cc8CC[C@@H]7c7ccccc7)cc6)CC5)C4)CC3)c(F)c2)C(=O)N1` (stereo partly drawn) [Compound B381, 3-((3-fluoro-4-(4-((7-(4-((1R,2S)-6-hydroxy-2-phenyl-1,2,3,4-tetrahydronaphthalen-1-yl)phenyl)-7-azaspiro[3.5]nonan-2-yl)methyl)piperazin-1-yl)phenyl)amino)piperidine-2,6-dione], for which the DC50 was greater than 100 nM.

Take `O=C1CCC(N2Cc3cc4c(cc3C2=O)OC[C@@H]2CN(C(=O)CN3CCC5(CC3)CN(c3ccc([C@@H]6c7ccc(O)cc7CC[C@@H]6c6ccccc6)cc3)C5)CCN42)C(=O)N1` (stereo partly drawn) [Compound B161, 3-((S)-3-(2-(2-(4-((1R,2S)-6-hydroxy-2-phenyl-1,2,3,4-tetrahydronaphthalen-1-yl)phenyl)-2,7-diazaspiro[3.5]nonan-7-yl)acetyl)-8-oxo-1,2,3,4,4a,5,8,10-octahydro-9H-pyrazino[1′,2′:4,5][1,4]oxazino[2,3-f]isoindol-9-yl)piperidine-2,6-dione]: the DC50 is less than 10 nM.

With `O=C1CCC(Nc2ccc(C3CCN(CC4CCN(c5ccc([C@@H]6c7ccc(O)cc7CC[C@@H]6c6ccccc6)cc5)CC4)CC3)cc2F)C(=O)N1` (stereo partly drawn) [Compound B378, 3-((2-fluoro-4-(1-((1-(4-((1R,2S)-6-hydroxy-2-phenyl-1,2,3,4-tetrahydronaphthalen-1-yl)phenyl)piperidin-4-yl)methyl)piperidin-4-yl)phenyl)amino)piperidine-2,6-dione], the DC50 was greater than 100 nM.

For `O=C1CCC(N2Cc3c(ccc4c3OCC43CCN(C(=O)CN4CCC5(C4)CN(c4ccc([C@@H]6c7ccc(O)cc7CC[C@@H]6c6ccccc6)cc4)C5)CC3)C2=O)C(=O)N1` (stereo partly drawn) [Compound B169, 3-(1′-(2-(2-(4-((1R,2S)-6-hydroxy-2-phenyl-1,2,3,4-tetrahydronaphthalen-1-yl)phenyl)-2,6-diazaspiro[3.4]octan-6-yl)acetyl)-6-oxo-6,8-dihydro-2H,7H-spiro[furo[2,3-e]isoindole-3,4′-piperidin]-7-yl)piperidine-2,6-dione], the DC50 is less than 10 nM.

Consider `O=C1CC[C@H](N2Cc3c(ccc4c3OC[C@H]3CN(CC5CCC6(CN(c7ccc([C@@H]8c9ccc(O)cc9CC[C@@H]8c8ccccc8)cc7)C6)OC5)CCN43)C2=O)C(=O)N1` (stereo partly drawn) [Compound B348, (3S)-3-((5aR)-7-((2-(4-((1R,2S)-6-hydroxy-2-phenyl-1,2,3,4-tetrahydronaphthalen-1-yl)phenyl)-5-oxa-2-azaspiro[3.5]nonan-7-yl)methyl)-1-oxo-1,3,5,5a,6,7,8,9-octahydro-2H-pyrazino[1′,2′:4,5][1,4]oxazino[2,3-e]isoindol-2-yl)piperidine-2,6-dione], for which the DC50 is less than 10 nM.

Regarding `O=C1CCC(N2Cc3cc4c(cc3C2=O)OC[C@@H]2CN(C(=O)CN3CCC5(CC3)CCN(c3ccc([C@@H]6c7ccc(O)cc7CC[C@@H]6c6ccccc6)cn3)CC5)CCN42)C(=O)N1` (stereo partly drawn) [Compound B158, 3-((S)-3-(2-(9-(5-((1S,2S)-6-hydroxy-2-phenyl-1,2,3,4-tetrahydronaphthalen-1-yl)pyridin-2-yl)-3,9-diazaspiro[5.5]undecan-3-yl)acetyl)-8-oxo-1,2,3,4,4a,5,8,10-octahydro-9H-pyrazino[1′,2′:4,5][1,4]oxazino[2,3-f]isoindol-9-yl)piperidine-2,6-dione], the DC50 lay within 10 to 100 nM.

Turning to `O=C1CCC(Nc2ccc(N3CCN(CC4CCC5(CCN(c6ccc([C@@H]7c8ccc(O)cc8CC[C@@H]7c7ccccc7)cc6)CC5)OC4)CC3)c(F)c2)C(=O)N1` (stereo partly drawn) [Compound B382, 3-((3-fluoro-4-(4-((9-(4-((1R,2S)-6-hydroxy-2-phenyl-1,2,3,4-tetrahydronaphthalen-1-yl)phenyl)-1-oxa-9-azaspiro[5.5]undecan-3-yl)methyl)piperazin-1-yl)phenyl)amino)piperidine-2,6-dione], the DC50 was greater than 100 nM.

Take `O=C1CC[C@H](N2Cc3cc4c(cc3C2=O)OC[C@@H]2CN(C[C@H]3CC[C@@H](Nc5ccc([C@@H]6c7ccc(O)cc7CC[C@@H]6c6ccccc6)cc5)CC3)CCN42)C(=O)N1` [Compound B354, (S)-3-((S)-3-(((1R,4S)-4-((4-((1R,2S)-6-hydroxy-2-phenyl-1,2,3,4-tetrahydronaphthalen-1-yl)phenyl)amino)cyclohexyl)methyl)-8-oxo-1,2,3,4,4a,5,8,10-octahydro-9H-pyrazino[1′,2′:4,5][1,4]oxazino[2,3-f]isoindol-9-yl)piperidine-2,6-dione]: the DC50 lay in the range of 10 to 100 nM.

Take `O=C1CC[C@H](N2Cc3cc4c(cc3C2=O)OC[C@@H]2CN(CC3CCC5(CN(c6ccc([C@@H]7c8ccc(O)cc8CC[C@@H]7c7ccccc7)cc6)C5)OC3)CCN42)C(=O)N1` (stereo partly drawn) [Compound B349, (3S)-3-((4aS)-3-((2-(4-((1R,2S)-6-hydroxy-2-phenyl-1,2,3,4-tetrahydronaphthalen-1-yl)phenyl)-5-oxa-2-azaspiro[3.5]nonan-7-yl)methyl)-8-oxo-1,2,3,4,4a,5,8,10-octahydro-9H-pyrazino[1′,2′:4,5][1,4]oxazino[2,3-f]isoindol-9-yl)piperidine-2,6-dione]: the DC50 lay within 10 to 100 nM.

On to `CN(CC1CC2(CCN(c3ccc([C@@H]4c5ccc(O)cc5CC[C@@H]4c4ccccc4)cc3)CC2)C1)[C@H]1C[C@H]2COc3cc4c(cc3N2C1)C(=O)N(C1CCC(=O)NC1=O)C4=O` (stereo partly drawn) [Compound B331, (2S,3aS)-8-(2,6-dioxopiperidin-3-yl)-2-(((7-(4-((1R,2S)-6-hydroxy-2-phenyl-1,2,3,4-tetrahydronaphthalen-1-yl)phenyl)-7-azaspiro[3.5]nonan-2-yl)methyl)(methyl)amino)-2,3,3a,4-tetrahydro-1H,7H-pyrrolo[1′,2′:4,5][1,4]oxazino[2,3-f]isoindole-7,9(8H)-dione], for which the DC50 was greater than 100 nM.

Consider `O=C1CCC(N2Cc3c(ccc4c3OC[C@H]3CN(CC5CC6CN(c7ccc([C@@H]8c9ccc(O)cc9CC[C@@H]8c8ccccc8)cc7)CC6C5)CCN43)C2=O)C(=O)N1` (stereo partly drawn) [Compound B320, 3-((5aR)-7-(((3aRS,6aSR)-2-(4-((1R,2S)-6-hydroxy-2-phenyl-1,2,3,4-tetrahydronaphthalen-1-yl)phenyl)octahydrocyclopenta[c]pyrrol-5-yl)methyl)-1-oxo-1,3,5,5a,6,7,8,9-octahydro-2H-pyrazino[1′,2′:4,5][1,4]oxazino[2,3-c]isoindol-2-yl)piperidine-2,6-dione], for which the DC50 is greater than 100 nM.

On to `O=C1CCC(Nc2ccc(N3CCN(CC4CCN(c5ccc([C@@H]6c7ccc(O)cc7CC[C@@H]6c6ccccc6)cc5)CC4)CC3)c(F)c2)C(=O)N1` (stereo partly drawn) [Compound B380, 3-((3-fluoro-4-(4-((1-(4-((1R,2S)-6-hydroxy-2-phenyl-1,2,3,4-tetrahydronaphthalen-1-yl)phenyl)piperidin-4-yl)methyl)piperazin-1-yl)phenyl)amino)piperidine-2,6-dione], for which the DC50 was greater than 100 nM.
